# What was measured:
# [1] = tested on: Human adenocolon cancer SW-403; experiment: MTS cell proliferation, nanomolar antagonist, SW-403; type: cell-based; settings: Aprepitant 1, 5 and 7 nM, vs cells grown in the absence of antagonist, time dependant
# Description: (§1) Cell cultures of various commercial tumour cell lines stated in table 13 were used. [table] […] The number of cells was quantified using a Coulter counter. […] The culture plates were grown in the presence of increasing concentrations of non-peptide NK1 receptor antagonists. To obtain the staining in the proliferation assays, 20 μl of MTS were added to each one of the wells of the cell culture plates 90 minutes before reading the samples in a multiscan spectrophotometer (TECAN Spectra classic, Barcelona, Spain) at 492 nm (assay wavelength) and 690 nm (reference wavelength). The different doses were tested in duplicate and each experiment was performed in triplicate. The antagonist Aprepitant was used at the following concentrations: 1 nanomolar -nM-, 5 nanomolar -nM- and 7 nanomolar -nM-. […] As proliferation control, the cells were grown in the absence of said antagonist. This is expressed in FIGS. 1 to 10.
# [2] = tested on: Human fibrosarcoma HT-1080; experiment: MTS cell proliferation, nanomolar antagonist, HT-1080; type: cell-based; settings: Aprepitant 1, 5 and 7 nM, vs cells grown in the absence of antagonist, time dependant
# Description: as §1
# [3] = tested on: Human neuroblastoma KELLY; experiment: MTS cell proliferation, nanomolar antagonist, KELLY; type: cell-based; settings: Aprepitant 1, 5 and 7 nM, vs cells grown in the absence of antagonist, time dependant
# Description: as §1
# [4] = tested on: human glioma; reference GAMG; experiment: Glioma GAMG tumours implanted s.c. in nude mice, Aprepitant alone; type: in vivo
# Description: (§2) Immunocompromised female mice, 5-6 weeks of age were used, nu/nu Balb/c nude mice, provided by Harlan Iberica Barcelona (Spain). They were kept at 24° C. and in sterile conditions with food and water “ad libitum”. They were injected with 2×10^7 tumour cells, corresponding to cancer (human lung cancer, reference HCC-44 supplied by DSMZ) in 200 μl of PBS subcutaneous route. The tumour size was measured and the mice were evaluated for their state of health and weight daily. The mice were randomized in nine groups when the tumours reached a volume of 75 mm^3. One of the groups was treated with 200 μl of placebo (control group) and the eight remaining groups with doses of 10 (group 1), 20 (group 2), 30 (group 3), 40 (group 4), 50 (group 5), 60 (group 6), 70 (group 7) and 80 (group 8) mg per kilogram of weight and day of the NK1 receptor antagonist Aprepitant. 3 animals were treated per group, during 28 days. All the mice were sacrificed at the end of the experiment.
# (§3) Immunocompromised female mice, 5-6 weeks of age were used, in the same conditions as explained in example 1. They were injected with 2×10^7 tumour cells, corresponding to a glial cell line tumour of the central nervous system human (human glioma; reference GAMG; supplied by DSMZ) in 200 μl of PBS by subcutaneous route. The tumour size was measured and the mice were evaluated for their state of health and weight daily. The mice were randomized in nine groups when the tumours reached a volume of 75 mm^3. One of the groups was treated with 200 μl of placebo (control group) and the eight remaining groups with doses of 10 (group 1), 20 (group 2), 30 (group 3), 40 (group 4), 50 (group 5), 60 (group 6), 70 (group 7) and 80 (group 8) mg per kilogram of weight and day of the NK1 receptor antagonist Aprepitant. 3 animals were treated per group, during 28 days. All the mice were sacrificed at the end of the experiment.
# Human glioma GAMG = experiment: MTS cell proliferation, nanomolar antagonist, GAMG; type: cell-based; settings: Aprepitant 1, 5 and 7 nM, vs cells grown in the absence of antagonist, time dependant
# Description: as §1
# Human melanoma MEL HO = experiment: MTS cell proliferation, nanomolar antagonist, MEL HO; type: cell-based; settings: Aprepitant 1, 5 and 7 nM, vs cells grown in the absence of antagonist, time dependant
# Description: as §1
# [5] = tested on: human lymphoma; reference BC-1; experiment: Lymphoma BC-1 tumours implanted s.c. in nude mice, Aprepitant alone; type: in vivo
# Description: as §2
# as §3, with “haematological” for “glial”, “tumour” for “tumour of the central nervous system human”, “lymphoma;” for “glioma;”, “BC-1;” for “GAMG;”
# Human breast cancer MT-3 = experiment: MTS cell proliferation, nanomolar antagonist, MT-3; type: cell-based; settings: Aprepitant 1, 5 and 7 nM, vs cells grown in the absence of antagonist, time dependant
# Description: as §1
# [6] = Aprepitant 10 mg/kg/day, 7 days
# [7] = Aprepitant 10 mg/kg/day, 14 days
# [8] = Aprepitant 10 mg/kg/day, 21 days
# [9] = Aprepitant 10 mg/kg/day, 28 days
# [10] = Aprepitant 20 mg/kg/day, 7 days
# [11] = Aprepitant 20 mg/kg/day, 14 days
# [12] = Aprepitant 20 mg/kg/day, 21 days
# [13] = Aprepitant 20 mg/kg/day, 28 days
# [14] = Aprepitant 30 mg/kg/day, 7 days
# [15] = Aprepitant 30 mg/kg/day, 14 days
# [16] = Aprepitant 30 mg/kg/day, 21 days
# [17] = Aprepitant 30 mg/kg/day, 28 days
# [18] = Aprepitant 40 mg/kg/day, 7 days
# [19] = Aprepitant 40 mg/kg/day, 14 days
# [20] = Aprepitant 40 mg/kg/day, 21 days
# [21] = Aprepitant 40 mg/kg/day, 28 days
# [22] = Aprepitant 50 mg/kg/day, 7 days
# [23] = Aprepitant 50 mg/kg/day, 14 days
# [24] = Aprepitant 50 mg/kg/day, 21 days
# [25] = Aprepitant 50 mg/kg/day, 28 days
# [26] = Aprepitant 60 mg/kg/day, 7 days
# [27] = Aprepitant 60 mg/kg/day, 14 days
# [28] = Aprepitant 60 mg/kg/day, 21 days
# [29] = Aprepitant 60 mg/kg/day, 28 days
# [30] = Aprepitant 70 mg/kg/day, 7 days
# [31] = Aprepitant 70 mg/kg/day, 14 days
# [32] = Aprepitant 70 mg/kg/day, 21 days
# [33] = Aprepitant 70 mg/kg/day, 28 days
# [34] = Aprepitant 80 mg/kg/day, 7 days
# [35] = Aprepitant 80 mg/kg/day, 14 days
# [36] = Aprepitant 80 mg/kg/day, 21 days
# [37] = Aprepitant 80 mg/kg/day, 28 days
smiles,measurement,setting,value
C[C@@H](O[C@H]1OCCN(Cc2n[nH]c(=O)[nH]2)[C@H]1c1ccc(F)cc1)c1cc(C(F)(F)F)cc(C(F)(F)F)c1 [Aprepitant],Proliferation of tumour cells (MTS),[1],increase was observed of proliferation
same,Proliferation of tumour cells (MTS),[2],increase was observed of proliferation
same,Proliferation of tumour cells (MTS),[3],increase was observed of proliferation
same,Tumour size (mean volume of the tumour),[4]; [6],205 ± 3 cubic millimeters
same,Tumour size (mean volume of the tumour),[4]; [7],185 ± 6 cubic millimeters
same,Tumour size (mean volume of the tumour),[4]; [8],170 ± 7 cubic millimeters
same,Tumour size (mean volume of the tumour),[4]; [9],155 ± 4 cubic millimeters
same,Tumour size (mean volume of the tumour),[4]; [10],190 ± 4 cubic millimeters
same,Tumour size (mean volume of the tumour),[4]; [11],160 ± 7 cubic millimeters
same,Tumour size (mean volume of the tumour),[4]; [12],150 ± 6 cubic millimeters
same,Tumour size (mean volume of the tumour),[4]; [13],125 ± 5 cubic millimeters
same,Tumour size (mean volume of the tumour),[4]; [14],160 ± 4 cubic millimeters
same,Tumour size (mean volume of the tumour),[4]; [15],145 ± 7 cubic millimeters
same,Tumour size (mean volume of the tumour),[4]; [16],120 ± 6 cubic millimeters
same,Tumour size (mean volume of the tumour),[4]; [17],105 ± 4 cubic millimeters
same,Tumour size (mean volume of the tumour),[4]; [18],155 ± 6 cubic millimeters
same,Tumour size (mean volume of the tumour),[4]; [19],125 ± 5 cubic millimeters
same,Tumour size (mean volume of the tumour),[4]; [20],110 ± 5 cubic millimeters
same,Tumour size (mean volume of the tumour),[4]; [21],90 ± 9 cubic millimeters
same,Tumour size (mean volume of the tumour),[4]; [22],125 ± 5 cubic millimeters
same,Tumour size (mean volume of the tumour),[4]; [23],110 ± 5 cubic millimeters
same,Tumour size (mean volume of the tumour),[4]; [24],100 ± 5 cubic millimeters
same,Tumour size (mean volume of the tumour),[4]; [25],80 ± 8 cubic millimeters
same,Tumour size (mean volume of the tumour),[4]; [26],95 ± 5 cubic millimeters
same,Tumour size (mean volume of the tumour),[4]; [27],85 ± 6 cubic millimeters
same,Tumour size (mean volume of the tumour),[4]; [28],60 ± 6 cubic millimeters
same,Tumour size (mean volume of the tumour),[4]; [29],50 ± 7 cubic millimeters
same,Tumour size (mean volume of the tumour),[4]; [30],75 ± 6 cubic millimeters
same,Tumour size (mean volume of the tumour),[4]; [31],60 ± 5 cubic millimeters
same,Tumour size (mean volume of the tumour),[4]; [32],55 ± 5 cubic millimeters
same,Tumour size (mean volume of the tumour),[4]; [33],35 ± 8 cubic millimeters
same,Tumour size (mean volume of the tumour),[4]; [34],60 ± 3 cubic millimeters
same,Tumour size (mean volume of the tumour),[4]; [35],45 ± 6 cubic millimeters
same,Tumour size (mean volume of the tumour),[4]; [36],25 ± 7 cubic millimeters
same,Tumour size (mean volume of the tumour),[4]; [37],15 ± 10 cubic millimeters
same,Proliferation of tumour cells (MTS),Human glioma GAMG,increase was observed of proliferation
same,Proliferation of tumour cells (MTS),Human melanoma MEL HO,increase was observed of proliferation
same,Tumour size (mean volume of the tumour),[5]; [6],210 ± 3 cubic millimeters
same,Tumour size (mean volume of the tumour),[5]; [7],195 ± 6 cubic millimeters
same,Tumour size (mean volume of the tumour),[5]; [8],175 ± 7 cubic millimeters
same,Tumour size (mean volume of the tumour),[5]; [9],170 ± 6 cubic millimeters
same,Tumour size (mean volume of the tumour),[5]; [10],195 ± 6 cubic millimeters
same,Tumour size (mean volume of the tumour),[5]; [11],175 ± 7 cubic millimeters
same,Tumour size (mean volume of the tumour),[5]; [12],160 ± 6 cubic millimeters
same,Tumour size (mean volume of the tumour),[5]; [13],150 ± 7 cubic millimeters
same,Tumour size (mean volume of the tumour),[5]; [14],180 ± 7 cubic millimeters
same,Tumour size (mean volume of the tumour),[5]; [15],155 ± 4 cubic millimeters
same,Tumour size (mean volume of the tumour),[5]; [16],145 ± 8 cubic millimeters
same,Tumour size (mean volume of the tumour),[5]; [17],140 ± 4 cubic millimeters
same,Tumour size (mean volume of the tumour),[5]; [18],165 ± 8 cubic millimeters
same,Tumour size (mean volume of the tumour),[5]; [19],165 ± 6 cubic millimeters
same,Tumour size (mean volume of the tumour),[5]; [20],130 ± 5 cubic millimeters
same,Tumour size (mean volume of the tumour),[5]; [21],110 ± 6 cubic millimeters
same,Tumour size (mean volume of the tumour),[5]; [22],150 ± 5 cubic millimeters
same,Tumour size (mean volume of the tumour),[5]; [23],145 ± 7 cubic millimeters
same,Tumour size (mean volume of the tumour),[5]; [24],120 ± 6 cubic millimeters
same,Tumour size (mean volume of the tumour),[5]; [25],100 ± 7 cubic millimeters
same,Tumour size (mean volume of the tumour),[5]; [26],130 ± 6 cubic millimeters
same,Tumour size (mean volume of the tumour),[5]; [27],130 ± 8 cubic millimeters
same,Tumour size (mean volume of the tumour),[5]; [28],100 ± 7 cubic millimeters
same,Tumour size (mean volume of the tumour),[5]; [29],85 ± 4 cubic millimeters
same,Tumour size (mean volume of the tumour),[5]; [30],110 ± 4 cubic millimeters
same,Tumour size (mean volume of the tumour),[5]; [31],105 ± 4 cubic millimeters
same,Tumour size (mean volume of the tumour),[5]; [32],80 ± 5 cubic millimeters
same,Tumour size (mean volume of the tumour),[5]; [33],80 ± 7 cubic millimeters
same,Tumour size (mean volume of the tumour),[5]; [34],95 ± 6 cubic millimeters
same,Tumour size (mean volume of the tumour),[5]; [35],85 ± 6 cubic millimeters
same,Tumour size (mean volume of the tumour),[5]; [36],65 ± 3 cubic millimeters
same,Tumour size (mean volume of the tumour),[5]; [37],65 ± 9 cubic millimeters
same,Proliferation of tumour cells (MTS),Human breast cancer MT-3,increase was observed of proliferation
